Laboratory results as given in US8273788B2, “Five-membered iminocyclitol derivatives as selective and potent glycosidase inhibitors: new structures for antivirals and osteoarthritis therapeutics” (Academia Sinica, Taiwan, priority 2005, dated 2012).
Values joined by “and” are separate entries in the source; they are usually repeats but may differ in a detail not shown here. Identical values can stand only once.

Legend:
α-glucosidase = target: T1, α-glucosidase (Saccharomyces cerevisiae, UniProt P53341); test: α-glucosidase inhibition assay (in situ screen, IC50, Ki); assay type: biochemical, baker's yeast; details: for α-glucosidase Inhibition (%): reaction product at 20 μM, in situ screening; for IC50: pure compound; for Ki: value in brackets, read-out: α-glucosidase (Ki)
T1 construct: purchased Sigma Co. (St. Louis, Mo.); host or cells: baker's yeast
T1 sequence (P53341 whole entry): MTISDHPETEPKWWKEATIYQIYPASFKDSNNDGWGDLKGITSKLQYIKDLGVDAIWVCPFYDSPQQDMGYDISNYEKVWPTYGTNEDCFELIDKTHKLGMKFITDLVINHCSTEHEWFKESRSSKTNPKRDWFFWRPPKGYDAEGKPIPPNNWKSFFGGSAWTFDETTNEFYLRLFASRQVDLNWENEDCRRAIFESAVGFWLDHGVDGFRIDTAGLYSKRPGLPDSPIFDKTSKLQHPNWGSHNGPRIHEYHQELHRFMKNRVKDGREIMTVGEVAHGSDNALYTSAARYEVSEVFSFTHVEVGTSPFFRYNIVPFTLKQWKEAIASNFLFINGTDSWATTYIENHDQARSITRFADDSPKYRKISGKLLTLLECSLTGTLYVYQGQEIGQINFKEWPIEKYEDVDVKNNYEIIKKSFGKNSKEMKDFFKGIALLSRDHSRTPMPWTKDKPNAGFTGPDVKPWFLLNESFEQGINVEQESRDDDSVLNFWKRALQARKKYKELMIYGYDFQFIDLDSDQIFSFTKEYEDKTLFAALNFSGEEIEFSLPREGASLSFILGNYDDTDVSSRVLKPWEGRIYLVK
Description: (§1) A mixture of iminocyclitol 4, a carboxylic acid (1 equiv, Scheme 2), diisopropyl ethylamine (DIEA, 2.2 equiv), and (1H-benzotriazole-1-yl)-1,1,3,3-tetramethyl-uronium hexafluorophosphate (HBTU, 1.1 equiv) in DMSO was shaken in 96-well microtiter plates for 5 h. Crude reaction products were randomly selected (30%) and analyzed by ESI-MS to ensure the presence of the desired products. The reaction mixture was diluted by appropriate buffer solutions and transferred to another 96-well microtiter plate for screening directly without any purification. […] Assuming the amide formation is complete, the percentage of inhibition relative to the control was calculated on the basis of absorbance at 405 nm for p-nitrophenol released from their corresponding substrates.
General procedure for coupling reactions and in situ screening. To a DMSO solution (10 μL) in each well of a 96-well microtiter plate was added each carboxylic acid (10 μL from a 10 mm stock solution in DMSO, 0.1 μmol), HBTU (10 μL from a 11 mm stock solution in DMSO, 1.1 equiv, 0.11 μmol), and DIEA (10 μL from a 22 mM stock solution in DMSO, 2.2 equiv, 0.22 μmol).
(§2) Enzyme assay. General procedure for the assay with various glycosidases. The initial velocities of the hydrolysis were measured spectrophotometrically at various concentrations of p-nitrophenyl-glycopyranoside (4 mM, 2 mM, 1 mM, 0.5 mM, 0.25 mM, 0.125 mM, 0.0625 mM) at 405 nm using Bio Assay Reader (Perkin Elmer HTS 7000 Plus) at 30° C. The obtained data were fitted into the Michaelis-Menten equation by using the Kaleida Graph program to determine the apparent Km values. […] The assays performed in wells of the microtiter plate contained either sodium phosphate buffer (50 mM, pH 7, for α- and β-glucosidase, α- and β-galactosidase, α- and β-mannosidase, α-fucosidase), or Mcllvaine's buffer (25 mM, pH 6, N-acetyl-β-hexosaminidase, jack bean).
(§3) The secondary plot was generated by plotting the apparent Km values as a function of inhibitor concentrations. Ki was calculated from the negative value of the x-intercept of this plot.

β-glucosidase = β-glucosidase inhibition assay (in situ screen, IC50, Ki); assay type: biochemical, almonds; details: for β-glucosidase Inhibition (%): reaction product at 20 μM, in situ screening; for IC50: pure compound; for Ki: value in brackets
Description: as §1, §2, §3

[1] = tested on: N-acetyl-β-hexosaminidase; test: N-acetyl-β-hexosaminidase inhibition assay (in situ screen, IC50, Ki); assay type: biochemical, jack bean; details: for N-acetyl-β-hexosaminidse Inhibition (%): reaction product at 30 μM, in situ screening; for IC50: pure compound, read-out: N-acetyl-β-hexosaminidse IC50
Description: as §1, §2, §3

[2] = tested on: Japanese encephalitis virus (JEV); test: Anti-JEV cell-based assay (plaque forming assay, BHK-21 cells)
[3] = tested on: dengue virus serotype 2 (DEN-2); test: Anti-DEN-2 cell-based assay (plaque forming assay, BHK-21 cells)

With `O=C(/C=C/c1cccc(Cl)c1)NC[C@H]1N[C@H](CO)[C@@H](O)[C@@H]1O` [Compound 13] the “α-glucosidase Inhibition (%)” value (α-glucosidase) was 19%, the “β-glucosidase Inhibition (%)” value (β-glucosidase) was 59% and the “N-acetyl-β-hexosaminidse Inhibition (%)” value [1] was 3%.

With `O=C(NC[C@H]1N[C@H](CO)[C@@H](O)[C@@H]1O)c1cn(Cc2ccccc2)c2ccccc12` [Compound 23] the IC50 (α-glucosidase) was 17 µM, the “α-glucosidase Inhibition (%)” value (α-glucosidase) was 63% and the IC50 (β-glucosidase) was 92 µM. The “β-glucosidase Inhibition (%)” value (β-glucosidase) was 28%, the IC50 [1] was 4.7 µM and the “N-acetyl-β-hexosaminidse Inhibition (%)” value [1] was 14%.

With `Cc1ccc(/C=C/C(=O)NC[C@H]2N[C@H](CO)[C@@H](O)[C@@H]2O)cc1` [Compound 27] the “α-glucosidase Inhibition (%)” value (α-glucosidase) was 26%, the “β-glucosidase Inhibition (%)” value (β-glucosidase) was 55% and the “N-acetyl-β-hexosaminidse Inhibition (%)” value [1] was 6%.

For `CCCCC(CC)C(=O)NC[C@H]1N[C@H](CO)[C@@H](O)[C@@H]1O` (stereo partly shown) [Compound 7], the IC50 (α-glucosidase) was 4 µM, the “α-glucosidase Inhibition (%)” value (α-glucosidase) was 61% and the IC50 (β-glucosidase) was 4.8 µM. The “β-glucosidase Inhibition (%)” value (β-glucosidase) was 52%, the IC50 [1] was 19 µM and the “N-acetyl-β-hexosaminidse Inhibition (%)” value [1] was 20%. For the same compound, the “inhibition of JEV infection” value ([2]; at 50 and 100 μM) was “no inhibition” and the “inhibition of DEN-2 infection” value ([3]; at 50 and 100 μM) was “no inhibition”.

For `O=C(Cc1cccc2ccccc12)NC[C@H]1N[C@H](CO)[C@@H](O)[C@@H]1O` [Compound 17], the IC50 (α-glucosidase) was 0.28 µM, the “α-glucosidase Inhibition (%)” value (α-glucosidase) was 94% and the Ki (α-glucosidase) was 0.077 µM. The IC50 (β-glucosidase) was 92 µM, the “β-glucosidase Inhibition (%)” value (β-glucosidase) was 45% and the “N-acetyl-β-hexosaminidse Inhibition (%)” value [1] was 45%. For the same compound, the “inhibition of JEV infection” value ([2]; at 50 and 100 μM) was “no inhibition” and the “inhibition of DEN-2 infection” value ([3]; at 50 and 100 μM) was “no inhibition”.

`O=C(/C=C/c1cccc(Br)c1)NC[C@H]1N[C@H](CO)[C@@H](O)[C@@H]1O` [Compound 26] was tested, and the “α-glucosidase Inhibition (%)” value (α-glucosidase) was 31%, the “β-glucosidase Inhibition (%)” value (β-glucosidase) was 52% and the “N-acetyl-β-hexosaminidse Inhibition (%)” value [1] was 17%.

`O=C(/C=C/c1c[nH]c2ccccc12)NC[C@H]1N[C@H](CO)[C@@H](O)[C@@H]1O` [Compound 22] was tested, and the IC50 (α-glucosidase) was 0.81 µM, the “α-glucosidase Inhibition (%)” value (α-glucosidase) was 42% and the IC50 (β-glucosidase) was 260 µM. The “β-glucosidase Inhibition (%)” value (β-glucosidase) was 34%, the IC50 [1] was 63 µM and the “N-acetyl-β-hexosaminidse Inhibition (%)” value [1] was 16%. For the same compound, the “inhibition of JEV infection” value ([2]; at 50 and 100 μM) was “no inhibition” and the “inhibition of DEN-2 infection” value ([3]; at 50 and 100 μM) was “no inhibition”.

With `O=C(CO)NC[C@H]1N[C@H](CO)[C@@H](O)[C@@H]1O` [Compound 6] the “α-glucosidase Inhibition (%)” value (α-glucosidase) was 10%, the “β-glucosidase Inhibition (%)” value (β-glucosidase) was 23% and the “N-acetyl-β-hexosaminidse Inhibition (%)” value [1] was 67%.

`CN(C)c1ccc(C(=O)NC[C@H]2N[C@H](CO)[C@@H](O)[C@@H]2O)cc1` [Compound 11] was tested, and the “α-glucosidase Inhibition (%)” value (α-glucosidase) was 41%, the “β-glucosidase Inhibition (%)” value (β-glucosidase) was 55% and the “N-acetyl-β-hexosaminidse Inhibition (%)” value [1] was 6%.

In the case of `NC(Cn1ccc(=O)cc1)C(=O)NCC1NC(CO)C(O)C1O` (stereo not shown) [Compound 9], the “α-glucosidase Inhibition (%)” value (α-glucosidase) is reported as 27%, the “β-glucosidase Inhibition (%)” value (β-glucosidase) is reported as 37% and the “N-acetyl-β-hexosaminidse Inhibition (%)” value [1] is reported as 53%.

With `CC(=O)OC[C@H]1N[C@H](CNC(=O)C2Cc3ccccc32)[C@@H](OC(C)=O)[C@@H]1OC(C)=O` (stereo partly shown) [Compound 30] the “inhibition of JEV infection” value ([2]; at 50 μM) was “no inhibition” and the “inhibition of DEN-2 infection” value ([3]; at 50 μM) was “no inhibition”.

`COC(=O)c1ccc2[nH]c(C(=O)NC[C@H]3N[C@H](CO)[C@@H](O)[C@@H]3O)cc2c1` [Compound 18] was tested, and the IC50 (α-glucosidase) was 120 µM, the “α-glucosidase Inhibition (%)” value (α-glucosidase) was 36% and the IC50 (β-glucosidase) was 10 µM. For the same compound, the “β-glucosidase Inhibition (%)” value (β-glucosidase) was 53%, the Ki (β-glucosidase) was 6.2 µM and the IC50 [1] was 42 µM. The “N-acetyl-β-hexosaminidse Inhibition (%)” value [1] was 23%.

`O=C(Cc1c[nH]c2ccccc12)NC[C@H]1N[C@H](CO)[C@@H](O)[C@@H]1O` [Compound 20] was tested, and the IC50 (α-glucosidase) was 1.2 µM, the “α-glucosidase Inhibition (%)” value (α-glucosidase) was 85% and the Ki (α-glucosidase) was 0.43 µM. The IC50 (β-glucosidase) was 130 µM, the “β-glucosidase Inhibition (%)” value (β-glucosidase) was 23% and the “N-acetyl-β-hexosaminidse Inhibition (%)” value [1] was 29%. For the same compound, the “inhibition of JEV infection” value ([2]; at 50 and 100 μM) was “no inhibition” and the “inhibition of DEN-2 infection” value ([3]; at 50 and 100 μM) was “no inhibition”.

For `CSc1ccccc1C(=O)NC[C@H]1N[C@H](CO)[C@@H](O)[C@@H]1O` [Compound 14], the “α-glucosidase Inhibition (%)” value (α-glucosidase) was 51%, the “β-glucosidase Inhibition (%)” value (β-glucosidase) was 7% and the “N-acetyl-β-hexosaminidse Inhibition (%)” value [1] was 54%.

In the case of `O=C(NC[C@H]1N[C@H](CO)[C@@H](O)[C@@H]1O)c1ccc2c(c1)C(=O)c1ccccc1-2` [Compound 25], the “α-glucosidase Inhibition (%)” value (α-glucosidase) is reported as 56%, the “β-glucosidase Inhibition (%)” value (β-glucosidase) is reported as 63% and the “N-acetyl-β-hexosaminidse Inhibition (%)” value [1] is reported as 17%.

With `O=C(NC[C@H]1N[C@H](CO)[C@@H](O)[C@@H]1O)c1ccccc1` [Compound 10] the “α-glucosidase Inhibition (%)” value (α-glucosidase) was 16%, the “β-glucosidase Inhibition (%)” value (β-glucosidase) was 12% and the “N-acetyl-β-hexosaminidse Inhibition (%)” value [1] was 13%.

With `CCCCCCCCCN1C(CO)C(O)C(O)C1CNC(=O)C1Cc2ccccc21` (stereo not shown) [Compound 36] the IC50 ([2]; read-out: JEV IC50, M.O.I. = 0.1, virus production, BHK-21 cells) was 11.3 ± 1.9 µM, the IC90 ([2]; read-out: JEV IC90, M.O.I. = 0.1, virus production, BHK-21 cells) was 17.5 ± 0.8 µM and the IC50 ([3]; read-out: DEN IC50, M.O.I. = 0.1, virus production, BHK-21 cells) was 11.8 ± 0.2 µM. The IC90 ([3]; read-out: DEN IC90, M.O.I. = 0.1, virus production, BHK-21 cells) was 18 ± 0.2 µM.

With `COc1ccc(/C=C/C(=O)NC[C@H]2N[C@H](CO)[C@@H](O)[C@@H]2O)cc1OC(C)=O` [Compound 28] the IC50 (α-glucosidase) was 250 µM, the “α-glucosidase Inhibition (%)” value (α-glucosidase) was 27% and the IC50 (β-glucosidase) was 2.4 µM. The Ki (β-glucosidase) was 1.24 µM and 1.2 µM and the “N-acetyl-β-hexosaminidse Inhibition (%)” value [1] was 52%.

In the case of `O=C(NC[C@H]1N[C@H](CO)[C@@H](O)[C@@H]1O)c1ccc2[nH]ccc2c1` [Compound 19], the “α-glucosidase Inhibition (%)” value (α-glucosidase) is reported as 82%, the “β-glucosidase Inhibition (%)” value (β-glucosidase) is reported as 15% and the “N-acetyl-β-hexosaminidse Inhibition (%)” value [1] is reported as 14%.

`O=C(Cc1ccc2ccccc2c1)NC[C@H]1N[C@H](CO)[C@@H](O)[C@@H]1O` [Compound 16] was tested, and the IC50 (α-glucosidase) was 19 µM, the “α-glucosidase Inhibition (%)” value (α-glucosidase) was 67% and the IC50 (β-glucosidase) was 49 µM. The “β-glucosidase Inhibition (%)” value (β-glucosidase) was 44%, the IC50 [1] was 15 µM and the “N-acetyl-β-hexosaminidse Inhibition (%)” value [1] was 10%.

For `O=C(NC[C@H]1N[C@H](CO)[C@@H](O)[C@@H]1O)c1ccc2ccccc2c1` [Compound 15], the IC50 (α-glucosidase) was 100 µM, the “α-glucosidase Inhibition (%)” value (α-glucosidase) was 45% and the IC50 (β-glucosidase) was 58 µM. For the same compound, the “β-glucosidase Inhibition (%)” value (β-glucosidase) was 28%, the Ki (β-glucosidase) was 30 µM and the IC50 [1] was 44 µM. The “N-acetyl-β-hexosaminidse Inhibition (%)” value [1] was 31%.

In the case of `CN(C)c1ccc(/C=C/C(=O)NC[C@H]2N[C@H](CO)[C@@H](O)[C@@H]2O)cc1` [Compound 29], the IC50 (α-glucosidase) is reported as 280 µM, the “α-glucosidase Inhibition (%)” value (α-glucosidase) is reported as 22% and the IC50 (β-glucosidase) is reported as 3.2 µM. The “β-glucosidase Inhibition (%)” value (β-glucosidase) was 55%, the Ki (β-glucosidase) was 1.4 µM and the IC50 [1] was 7.02 µM. For the same compound, the “N-acetyl-β-hexosaminidse Inhibition (%)” value [1] was 17%.

For `O=C(/C=C/c1cccc(C(F)(F)F)c1)NC[C@H]1N[C@H](CO)[C@@H](O)[C@@H]1O` [Compound 12], the “α-glucosidase Inhibition (%)” value (α-glucosidase) was 19%, the “β-glucosidase Inhibition (%)” value (β-glucosidase) was 49% and the “N-acetyl-β-hexosaminidse Inhibition (%)” value [1] was 8%.

In the case of `O=C(CCc1c[nH]c2ccccc12)NC[C@H]1N[C@H](CO)[C@@H](O)[C@@H]1O` [Compound 21], the IC50 (α-glucosidase) is reported as 11 µM, the “α-glucosidase Inhibition (%)” value (α-glucosidase) is reported as 83% and the IC50 (β-glucosidase) is reported as 75 µM. For the same compound, the “β-glucosidase Inhibition (%)” value (β-glucosidase) was 20%, the IC50 [1] was 3.2 µM and the “N-acetyl-β-hexosaminidse Inhibition (%)” value [1] was 27%.
